Data from patent US10974036B2, “Implantable device for long-term delivery of drugs” (Delpor, Inc., priority 2009, dated 2021).
In brackets after ≈: the same amount, converted by molar mass. Several values for one entry are separate records, joined by “and”; a condition that tells them apart may be missing. Equal entries are not always repeated. Where two headings read alike, the source gives them in different places.

What was measured:
[1] = cited from earlier work
[2] = in vivo; conditions: human, plasma, iv
[3] = cited from earlier work; remark: listed apart in the source
[4] = 100 mg risperidone, PBS pH 7.4, 37° C.
Protocol: Two groups of drug delivery devices were assembled as follows. Cylindrical titanium tubes, 4 mm in diameter and 35 mm in length, were prepared. […] The reservoirs of the devices were filled with phosphate buffered saline (PBS) at pH 7.4 under reduced pressure. Each of the devices in Group B was fitted with two regenerated cellulose membranes (5000 Daltons molecular weight cut off) at each end of the cylindrical tube by sandwiching the membrane between an o-ring and titanium frit (5 micron pores), as illustrated in FIGS. 5A-5B. The devices in Group A were identical, except the cellulose membrane was omitted, as illustrated in FIGS. 4A-4B. The devices were then placed individually in tubes containing approximately 1 mL PBS. The tubes were placed on a rotating rack (1 revolution per hour) at 37° C.
Buffer was diluted to 20-50 micrograms/mL prior to measurement to insure that the concentration was within the linear range of the UV measurement. Buffer was replaced each day.

[5] = In vitro release of risperidone, Franz-type diffusion cells with different porous partitions (Example 1); format: physicochemical; conditions: after 3-4 day equilibration phase, suspension with PLGA, room temperature
Text: As described in Example 1, typical Franz-type diffusion cells were fitted with a porous partition separating a donor chamber from a receptor chamber. The partitions were selected to span a wide range of pore sizes (i.e., molecular weight cut-off or “MWCO”, values or nominal pose diameter) The porous partitions selected for use in this study had molecular weight cut-off values of 100,000 Daltons and 3,000 Daltons. In addition, a porous partition in the form of a […] polyvinyldenefluoride membrane filter (Durapore®) was used.
Sustained, substantially zero-order release rate was obtained, as best seen in FIG. 7B.
Typical Franz-type diffusion cells were fitted with porous partitions separating a donor chamber from a receptor chamber. The porous partitions were membranes with pore sizes of 3,000 Daltons molecular weight cut-off, 100,000 Daltons molecular weight cut-off and a 0.45 micron polyvinyldenefluoride membrane filter (Durapore®). […] The cells were maintained at room temperature. […] Buffer was replaced each day.

[6] = PBS, 37° C.
Protocol: In yet another study, devices were prepared as described herein an tested in vitro and in vivo.
Two groups of devices (n=6) were prepared. The main body of each device consisted of a cylindrical titanium tube, definining an internal reservoir. The tubes were 35 mm in length, with an outer diameter (OD) of 4.3 mm and an inner diameter (ID) of about 3 mm (Peridot Manufacturing, Pleasanton, Calif.). Both ends of each tube were tapered (lathed) so as to accept a press cap which served to retain a porous partition, as illustrated in FIGS. 4-5. The first group of devices was fitted on one end with a titanium sintered frit having a diameter 3.5 mm, a depth 0.5 mm, and a 5 micron nominal particle retention size (Applied Porous Materials, Farmington, Conn.). The frit was secured in each tube by placing the tube horizontally in a holder, and then positioning over the open end, in sequence, the frit, an o-ring and the press cap.
A 2.5 mm stainless steel ball was placed in the reservoir to provide mixing. A second frit was sealed to the remaining open end of the reservoir using the same procedure as described above for the other end. […]
Both groups of devices were equally split, each subgroup of 3 devices destined for either in vitro or in vivo testing. In vitro release rate was determined by submerging the devices in 1 mL PBS held in screw cap cryo-vials. […]

[7] = In vivo plasma concentration after subcutaneous implantation of devices in rats (Example 5, FIG. 12B); conditions: subcutaneous device containing risperidone only, first week
Protocol: For in vivo experiments, rats were anesthetized and devices placed subcutaneously in the dorsum, lateral to the midline, using a trocar. Whole blood samples were obtained by tail vein venous puncture. Plasma was immediately separated from formed elements by centrifugation. […] The lower limit of quantitation was 0.10 ng/mL.

| Compound | Half-life ([1]; in vivo) | Target Steady state plasma conc ([1]; in vivo) | CL(L/hr) (iv) [1] | clearance [2] | Bioavailability oral [1] | Water solubility (mg/mL) acidic pH ([3]; acidic pH) | Water solubility (mg/mL) neutral pH [3] | other results |
| --- | --- | --- | --- | --- | --- | --- | --- | --- |
| O=C1CCc2ccc(OCCCCN3CCN(c4cccc(Cl)c4Cl)CC3)cc2N1 [Aripiprazole, aripiprazole] | 3 h | 100 ng/mL | 2.37 L/h | 39.6 mL/min | – | – | – | – |
| CN1CC2c3ccccc3Oc3ccc(Cl)cc3C2C1 (stereo not shown) [Asenapine, asenapine] | 24 h | 2.1 ng/mL | 52 L/h | 867 mL/min | < 2% | 13 mg/mL | 3.0 mg/mL | plasma clearance ([1]; in vivo): 52 L/h; Bioavailability sublingual ([1]; sublingual): 30%; solubility ([3]; in 0.1N HCl): 13000 µg/mL (≈ 45.5 mM); water solubility ([3]; pH 7-7.4): 3000 µg/mL (≈ 10.5 mM); water solubility ([3]; pH 7.0): 3000 µg/mL (≈ 10.5 mM) |
| O=C(CCCN1CCC(O)(c2ccc(Cl)cc2)CC1)c1ccc(F)cc1 [Haloperidol, haloperidol] | 29 h | 2 ng/mL | 42 L/h and 22 L/h | 667 mL/min | 65% | 4.2 mg/mL | 0.025 mg/mL | – |
| Cc1cc2c(s1)Nc1ccccc1N=C2N1CCN(C)CC1 [Olanzapine, olanzapine] | – | 30 ng/mL | – | – | 60% | – | – | – |
| Cc1nc2n(c(=O)c1CCN1CCC(c3noc4cc(F)ccc34)CC1)CCCC2O (stereo not shown) [Paliperidone, paliperidone] | 24 h | – | – | – | – | – | 0.54 mg/mL | Water solubility acidic pH relative to neutral pH ([3]; acidic pH): 100 x neutral |
| Cc1nc2n(c(=O)c1CCN1CCC(c3noc4cc(F)ccc34)CC1)CCCC2 [Risperidone, risperidone] | – | 20 ng/mL | – | – | – | – | – | average release rate ([4]; devices with 5 mg 50:50 PLGA and 15 mg 85:15 PLGA (Group B)): 1 to 1.2 mg/day; release rate ([4]; devices without PLGA (Group A)): less than 0.05 mg/day; release rate of risperidone ([5]; 0.45 polyvinyldenefluoride membrane filter (Durapore)): 70 µg/day; release rate of risperidone ([5]; porous partition 3,000 Dalton molecular weight cut-off): 100 µg/day; release rate of risperidone ([5]; porous partition 100,000 Dalton molecular weight cut-off): 200 µg/day; in vitro release rate ([6]; devices with PLGA (15 mg 50:50 and 50 mg 85:15), maintained for 30 days): above 0.4 mg/day; in vitro release rate ([6]; devices without PLGA, throughout 30 days): less than 0.05 mg/day; plasma levels of risperidone (plus 9-hydroxyrisperidone) [7]: barely detectable; release rate (5 mg 85:15 PLGA in suspension (FIG. 9)): 0.25 mg/day; release rate (10 mg 85:15 PLGA in suspension (FIG. 9)): 0.43 mg/day; release rate (15 mg 85:15 PLGA in suspension (FIG. 9)): 0.64 mg/day |
